Consider one molecule from patent publication US6214841A, “Antithrombotic compound” (Eli Lilly and Company, priority 1999, dated 2001).

One assay deals with human thrombin. Briefly: Inhibition of thrombin amidase activity, chromogenic substrate (Kass). The format is biochemical. The conditions noted are these: average of 3 assays; read-out: Kass, inhibitor of thrombin (converted). On the procedure: For example, thrombin hydrolyzes N-benzoyl-L-phenylalanyl-L-valyl-L-arginyl-p-nitroanilide, N-benzoyl-L-Phe-L-Val-L-Arg-p-nitroanilide.
The assay is carried out by mixing 50 μL buffer (0.03M Tris, 0.15M NaCl, pH 7.4) with 25 μL of human thrombin solution (purified human thrombin, Enzyme Research Laboratories, South Bend, Indiana, at 8 NIH units/mL) and 25 μL of test compound in a solvent (50% aqueous methanol (v:v)). Then 150 μL of an aqueous solution of the chromogenic substate (at 0.25 mg/mL) are added and the rates of hydrolysis of the substrate are measured by monitoring the reactions at 405 nm for the release of p-nitroaniline. Standard curves are constructed by plotting free thrombin concentration against hydrolysis rate. The hydrolysis rates observed with test compounds are then converted to "free thrombin" values in the respective assays by use of the standard curves. The bound thrombin (bound to test compound) is calculated by subtracting the amount of free thrombin observed in each assay from the known initial amount of thrombin used in the assay. The amount of free inhibitor in each assay is calculated by subtracting the number of moles of bound thrombin from the number of moles of added inhibitor (test compound). […]
Kass is calculated for a range of concentrations of test compounds and the mean value reported in units of liter per mole.

In another assay the target is factor Xa. Kind of assay: Inhibition of factor Xa amidase activity, chromogenic substrate (Kass). Type of assay: biochemical, human. The conditions noted are these: average of 3 assays; read-out: Kass, inhibitor of factor Xa (converted).
A further assay concerns rabbit AV shunt model. Kind of assay: Arterio-venous (AV) shunt model in the rabbit. Type of assay: in vivo. The conditions noted are these: i.v. infusion. From the text: Arterio-Venous (AV) Shunt Model in the Rabbit
Efficacy and potency of a compound are studied in a model of thrombosis in the anesthetized rabbit in which blood is shunted from the carotid artery through tubing to the left jugular vein. The shunt houses a thread upon which thrombotic material is deposited and is quantified in the presence and absence of a test compound. Specifically, the left jugular vein and right carotid artery are cannulated (PE 200 tubing, 22 cm). The tip of the arterial tubing is advanced approximately 1 cm and the tip of the venous tubing is advanced approximately 1 cm. The arterial and venous shunt segments are friction fitted into a center section of larger tubing (PE 260, 6 cm) with 4 strands of cotton thread (5.5 cm each), knotted together with a single knot at the end, in the lumen. Blood is circulated through the shunt for 15 min. The arterial and venous segments are clamped, the center section is detached, held vertically and the thread is carefully removed and weighed. The weight of a wet thread (38 mg, average of 10-4-stranded identical lengths) is subtracted from the total weight of the thread and thrombus. A drug is infused through a second catheter in the right jugular vein (2 cm inside vessel) starting 15 min before and throughout the 15 min period of blood circulation through the shunt. […]

As to `N=C(N)NCCCC(NC(=O)[C@@H]1CCCN1C(=O)[C@@H]1NCC[C@H]2CCCC[C@H]21)C(=O)c1nc2ccccc2s1` (mixture of isomers) [DL-Arg-Ia, (1R,4aR,8aR)-Perhydroisoquinolin-1-ylcarbonyl-N-[(1RS)-4-[(aminoiminomethyl)amino]-1-(benzothiazol-2-ylcarbonyl)-butyl]-L-prolinamide. 1.5 H2 SO4], the Kd was 2.84 nM on human thrombin and 3.32 nM on factor Xa. Further, the “ED50% (infusion dose to reduce thrombus weight by 50%)” value with rabbit AV shunt model is 0.008 mg/kg/h.
